Laboratory results taken from US8211922B2, “1-methylnicotinamide derivatives and formulations for treatment of lipoprotein abnormalities” (Cortria Corporation, priority 2005, dated 2012).

Legend:
[1] = Chemical stability; type: physicochemical
[2] = Binding to Sepharose immobilized heparin; settings: as a cationic molecule
[3] = tested on: rats fed a hypertriglyceridemic diet; assay: Rat model of hypertriglyceridemia (high-fructose diet), plasma triglyceride; type: in vivo; settings: Wistar rats, AIN93 diet with 60% fructose 8 weeks; 100 mg/kg MNA in drinking water for the last 4 weeks; FIG. 1
Method: Rats fed a high-fructose diet develop hypertriglyceridemia, insulin resistance and a mild degree of hypertension abnormalities that mimic metabolic syndrome in humans (Boehm and Claudi-Boehm, Scand J Clin Lab Invest Suppl. 2005; 240:3-13). […] One group was fed a control diet (basal AIN93) for 8 weeks, the second was fed an AIN93 diet supplemented with 60% fructose for 8 weeks, and the third was fed an AIN93 diet supplemented with 60% fructose that was additionally treated with 100 mg/kg of MNA for the last 4 weeks (after hypertriglicerydemia fully develops) and was given to drinking water. At the end of experiments rats were anesthetized, and blood was withdrawn and anticoagulated. Triglyceride level in plasma was measured by standard spectophotometric technique using commercially available kits.

[4] = tested on: patients on permanent therapy with simvastatin; assay: Safety of co-administration of MNA with statins; type: in vivo, human
Method: A group of 10 patients (4 females and 6 males, ages 38-79) on permanent therapy with simvastatin (10-20 mg/day) were selected for the study. In addition to simvastatin each patient received MNA in daily dose of 90 mg/day for six weeks. The clinical chemistry parameters were monitored during three doctor's visits: two weeks before, just before and after six weeks of MNA administration.

[5] = tested on: PGI2; assay: PGI2 release
[6] = tested on: various cell lines; assay: Cytoprotection of cell lines; type: cell-based
[7] = tested on: patients on permanent therapy with simvastatin or atorvastatin; assay: Long term MNA use in patients on permanent therapy with statins, lipoprotein levels; type: in vivo, human
Method: A group of 8 patients (5 females and 3 males, ages 59-85) on permanent therapy with simvastatin or atorvastatin (10-20 mg/day) were selected for the study. MNA in a daily dose of 90-180 mg was co-administrated for a period of 3 to 42 months. The liporotein levels for each patient were monitored in every 1 to 3 months. […] The changes varied from patient to patient within a limit −5% to −42%. The appropriate changes in LDL were within −12% to +17% and in HDL within −6% to +37%.

[8] = Toxicity and tolerability
[9] = MNA 90 mg/day for six weeks co-administered with simvastatin (10-20 mg/day), 10 patients

1-methylnicotinamide chloride [MNA]
Chemical stability [1]: chemically very stable | Binding to Sepharose immobilized heparin [2]: bound | Triglyceride level in plasma [3]: lowers triglyceride levels | Clinical chemistry parameters (liver enzymes AST and ALT, creatinine, urea, glucose and homocysteine) [4, 9]: not changed within the measurements accuracy | Negative effects on patient examination [4, 9]: no negative effects were observed | Adverse synergistic effects ([4]; MNA co-administration with statins): does not result in any adverse synergistic effects | PGI2 release [5]: releases PGI2 | Cytoprotection [6]: cytoprotective | HDL ([7]; co-administration with statin, patients with a low starting HDL level (<40 mg/dl)): particularly remarkable increase | Triglyceride (TG) level ([7]; long term co-administration of MNA with simvastatin or atorvastatin, in general): reduction | Negative side effects ([7]; long term co-administration of MNA with statins): Neither patients nor doctors involved with this study have declared any negative side effects | Tolerability [8]: very well tolerated | Toxicity [8]: non-toxic
